Data: US12178825B2, “Method and compositions for forming a copper-containing complex and uses thereof” (COLD SPRING HARBOR LABORATORY, priority 2017, dated 2024)
Entries after “also recorded” stand apart in the source; their conditions may differ.

Legend:
PTP1B = PTP1B (Homo sapiens, UniProt P18031); experiment: PTP1B inhibition (Ki); format: biochemical
[1] = Direct copper-binding assay with radiolabelled copper
Description: Direct binding assays were performed using radiolabelled copper (64 Cu^2+). Varying concentration of radiolabeled copper (0-100 nM) was incubated with DPM-1001 (100 nM). Excess copper was removed by running the samples through a desalting column. The amount of metal bound to the compound was quantitated directly by scintillation counting. For assays with the protein, His-tagged PTP1B (100 nM) was incubated with varying concentrations of Cu-DPM-1001 complex for 60 min in assay buffer (50 mM Hepes, 100 mM NaCl, 0.1% BSA pH 6.5) at 25° C. Protein-bound and free compound were separated by incubating the protein-inhibitor mixture with 50 μl of 50% Ni-NTA beads for 10 min at 25° C. The beads were washed with assay buffer containing 150 mM NaCl and 25 mM Imidazole three times, and the inhibitor bound to protein was determined by scintillation counting. The amount of bead-bound protein was estimated by BCA protein quantification.
Direct binding assays were performed using radiolabelled copper (64 Cu^2+). […] The amount of metal bound to the compound was quantitated directly by scintillation counting. […] The inhibitor bound to protein was determined by scintillation counting. The amount of bead-bound protein was estimated by BCA protein quantification. For protein quantitation the bead bound protein was precipitated with TCA (25% final) on ice for 30 minutes. […]

[2] = ESI-MS analysis of complex formation with a series of other metal ions; format: binding; conditions: panel of metals
Description: Eight equivalents of M(NO3)2·xH2O or MSO4·xH2O were reacted with 1 eq. of DPM-1001, DPM-1003 or analog 2 (1 mM in H2O). The reaction solutions were stirred at RT, 40° C. and 80° C. for 2 h. Each sample was diluted 5-fold in 50% methanol, 0.1% formic acid and loaded into a 500 μL syringe. A Thermo Vantage triple quadrupole mass spectrometer (Thermo Scientific), equipped with an HESI spray source was coupled to an Accela HPLC system (Thermo Scientific). Mobile phase A consisted of 0.1% formic acid and mobile phase B consisted of 0.1% formic acid in methanol. Isocratic flow was set to 50% B at 200 μL/min. 200 μl samples were injected into the LC flow line via syringe pump at 10 μL/min and electrosprayed into the Vantage triple quadrupole mass spectrometer. A spray voltage of 4.3 kV was used along with a capillary temperature of 350° C. Each full MS scan was 0.5 s and data were collected with a scan range of 200 m/z to 900 m/z over 1 min.

TX mice = experiment: Tissue and fecal copper levels (ICP-MS, rhodanine staining); format: in vivo, mouse; conditions: TX mice, ICP-MS
Description: C3He-Atp7b^tx-j were obtained from the Jackson laboratory. All animal experiments were performed according to protocols approved by the Institutional Animal Use and Care Committee of Cold Spring Harbor laboratory. Mice were injected intraperitoneally (i.p.) with vehicle, or administered DPM-1001 intraperitoneally or orally at 5 mg/kg once every third day, for over a year. At the end of the study animals were euthanized and tissue samples were removed for biochemical studies.
Tissue samples from wild-type or TX mice treated with saline, DPM-1001 or tetrathiomolybdate was washed three times with PBS containing 1 mM EDTA (to remove nonspecifically bound copper). Then, 215 μl of concentrated nitric acid (BDH Aristar Ultra) was added to each sample and incubated overnight. Samples were boiled at 95° C. for 1 h. and approximately 150 μl of each sample was further diluted in 2 ml 2% nitric acid (made freshly from concentrated nitric acid and Milli-Q water) Samples were analyzed on a Thermo Fisher iCAP Qc ICP mass spectrometer in kinetic energy discrimination (KED) mode against a calibration curve of known copper and phosphorus concentrations, with Ga (20 μg/l, Inorganic Ventures) as an internal standard, Each experiment was carried out twice and each condition was repeated in at least triplicate.
Liver tissues from wild-type and TX mice from untreated and DPM-1001-treated mice were sectioned and stained with H&E or rhodanine. Whole-slide, digitized images of H&E-stained tissue were captured using the Aperio ScanScope XT automated scanning system (Vista, CA). Image J software was used to quantitate rhodanine staining.

[3] = system: triple-negative breast cancer (TNBC) cell lines; experiment: MTT cell survival, triple-negative breast cancer cell lines; format: cell-based
Description: (§1) The MTT assay was used to evaluate cell survival in the absence and presence of different compounds. The thiazolyl blue tetrazolium bromide (MTT) was dissolved in phosphate buffered saline (PBS) at a concentration of 5 mg/ml, filtered, and stored at 4° C. About 10,000 cells were seeded into a 96-well plate and cultured in growth medium containing serum. After 24 hours, cells were treated with the indicated concentrations of DPM-1001 or DPM-1003 (0-100 uM) for 2 hrs. Following which 20 μl MTT was added into each well. An ELISA plate reader (Biotek, Winooski, Vermont, USA) was used to measure the optical density at 490 nm.

non-TNBC cell lines = experiment: MTT cell survival, non-TNBC cell lines; format: cell-based
Description: as §1

TNBC cells = experiment: Cellular copper levels by ICP-MS; format: cell-based
Description: TNBC cells (1×10^6) were plated in a 10-cm culture dish in growth medium. About 24 h after seeding cells, they were untreated or treated with DPM-1001 (2 uM) or DPM-1003 (2 uM) for 2 h. Following which, cells were washed three times with PBS. Then, 215 μl of concentrated nitric acid (BDH Aristar Ultra) was added to each sample and incubated overnight. Samples were boiled at 95° C. for 1 h. and approximately 150 μl of each sample was further diluted in 2 ml 2% nitric acid (made freshly from concentrated nitric acid and Milli-Q water). Samples were analyzed on a Thermo Fisher iCAP Qc ICP mass spectrometer in kinetic energy discrimination (KED) mode against a calibration curve of known copper and phosphorus concentrations, with Ga (20 μg/l, Inorganic Ventures) as an internal standard. Each experiment was carried out twice and each condition was repeated in at least triplicate.

MDA-MB-231 cells = experiment: MDA-MB-231 orthotopic xenograft; format: in vivo, SCID-beige mice; conditions: mice with TNBC xenograft, 5 mg/kg intraperitoneally every day
Description: MDA-MB-231 cells (2×10^6) were injected orthotopically into mammary fat pads of SCID-beige mice (Tectonic lab) in 15 μl of a 1:1 mixture with DMEM and growth factor-reduced Matrigel (BD Biosciences). The animals were randomly assigned to three groups to receive saline (control), DPM-1001 (5 mg/kg) or DPM-1003 (5 mg/kg) intraperitoneally everyday once the tumors reached about 200 mm^3. Tumor growth was monitored every third day and volume in mm^3 was measured three times weekly by palpation using the formula: volume=width^2×length/2. Once the tumor volume reached above 500 mm^3 in saline treated mice, the study was terminated. Tumors from all mice were removed for biochemical analysis.

Sequence of PTP1B (P18031 whole entry, species assumed): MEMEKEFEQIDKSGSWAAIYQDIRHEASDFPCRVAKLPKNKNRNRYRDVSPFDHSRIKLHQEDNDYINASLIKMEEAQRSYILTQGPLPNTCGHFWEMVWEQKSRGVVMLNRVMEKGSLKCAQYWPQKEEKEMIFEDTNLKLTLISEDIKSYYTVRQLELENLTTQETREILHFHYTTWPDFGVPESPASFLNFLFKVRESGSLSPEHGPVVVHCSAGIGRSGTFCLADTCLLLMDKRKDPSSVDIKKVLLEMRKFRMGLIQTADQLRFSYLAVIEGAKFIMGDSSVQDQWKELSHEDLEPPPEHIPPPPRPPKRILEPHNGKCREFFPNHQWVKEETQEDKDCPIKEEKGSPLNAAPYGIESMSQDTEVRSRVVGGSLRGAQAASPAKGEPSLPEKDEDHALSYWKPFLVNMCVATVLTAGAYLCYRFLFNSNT

## COC(=O)CCC(C)C1CCC2C3C(O)CC4CC(NCCCCNCc5cccnc5)CCC4(C)C3CCC12C (centres unmarked) [DPM-1003]
PTP1B
  Ki: 2000 nM
[1]
  binding to copper (in words): does not bind copper with high affinity; also recorded: limited binding; also recorded: does not bind with high affinity to or form a complex with copper
[2]
  complex formation with other metals: limited binding
TX mice
  copper levels in liver and brain: did not affect levels of copper in liver tissue; also recorded: did not suppress the levels of the metal in liver
[3]
  survival of triple-negative breast cancer cells: did not affect survival; also recorded: does not inhibit the survival
non-TNBC cell lines
  survival of non-TNBC cell lines, DPM-1001 versus DPM-1003: did not differ from each other
TNBC cells
  cellular copper levels: does not reduce copper levels
MDA-MB-231 cells
  tumor volume / tumor size: without effect; also recorded: not by DPM-1003; also recorded: did not reduce tumor size or inhibit tumor growth
